Measurements reported in PMC8234359, “Pharmacokinetics in Zebrafish Embryos (ZFE) Following Immersion and Intrayolk Administration: A Fluorescence-Based Analysis” (Pharmaceuticals, 2021).

Tests used:
[1] = Immersion of two-cell stage zebrafish embryos (10 µM), spatiotemporal fluorescence imaging and non-compartmental AUC; format: in vivo, zebrafish (Danio rerio); conditions: immersion 10 µM; for intrabody accumulation on longer incubations: 24–72 h; for AUC-RoB IMM (AUC0.25–72h): rest of body (non-yolk); for AUC-RoB IMM (AUC0.25–72h) / AUC-WB IMM (AUC0.25–72h) / AUC-Yolk IMM (AUC0.25–72h): 0.25 to 72 h; for AUC-WB IMM (AUC0.25–72h): whole body
Method: Immersion treatment: zebrafish embryos at the two-cell stage were immersed in Danieau’s medium containing the compound. A compound concentration of 10 µM and DMSO concentration of 0.1% (v/v) in a volume of 5 mL was used per well (6-well-plates). At 72 h, the zebrafish medium containing the compound was removed, and the animals rinsed 3 × with Danieau’s medium. Next, the embryos were kept for another 48 h in Danieau’s medium supplemented with DMSO (0.1%, v/v) in the absence of compound. In the case of control experiments, the embryos were exposed to Danieau’s medium supplemented with DMSO (0.1%, v/v).
Animals were kept in dark conditions in an incubator at 28.5 °C for defined time-periods (0.25, 1, 3, 6, 24, 48, 72, 96, and 120 h) before image analysis in a dark room. To acquire images, a Leica MZ10F fluorescent stereomicroscope (Leica Microsystems Inc., Buffalo Grove, IL, USA) with a 4.0× planapochromatic objective (10447243) was used, equipped with a Digital Color Camera Leica DFC310 FX (Software LAS 4.13, Leica Microsystems Inc., Buffalo Grove, IL, USA). Filter sets were GFP 10446222 in the case of compound FAMA, dSRED 10447079 in the cases of S-CY3A, CY3A and TAMRA, and CY5 10446366 in the cases of S-CY5.5A and S-CY5A. Previous to fluorescence imaging, the embryos were dechorionated (up to 72 hpf) and immobilized by hypothermia, rinsed three times with Danieau’s medium, and positioned latero-lateral (right lateral recumbency) on a single cavity glass slide and covered by a drop of agarose (0.1%). Then, using MetaMorph (Microscopy Automation and Image Analysis Software V.7.8.00, Molecular Devices, LLC., San Jose, CA, USA) and by manual delineation of the whole-body (WB) (up to 120 h) and yolk sac contours (up to 72 h) of the zebrafish embryos the fluorescence in the selected area was quantified as integrated fluorescence intensity (RFU). The RFU values of the non-yolk compartment (i.e., RoB: rest of body) was assessed by subtracting the yolk results from the corresponding integrated fluorescence intensities found in the WB.
(§1) In order to determine the degree of tissue exposure following administration of the fluorescent compounds, we calculated the AUC as the pharmacokinetic parameter of the non-compartmental analysis. The area under a plot of the fluorescence intensity (RFUT) versus time is referred to as the area under the (zero moment) curve AUC. RFUT represents the relative amount of compound present in the ZFE by measuring the integrated fluorescence intensity of delineated contours in fluorescence images (Figure 2). The AUC was then determined by summing the incremental area of subsequent trapezoids. […] In some cases, observations were censored and excluded from the analysis, due to possible fluorescence quenching effect of compounds that remains at the site of the intrayolk microinjection.

[2] = Intrayolk (IY) microinjection of two-cell stage zebrafish embryos (2 mg/kg), spatiotemporal fluorescence imaging and non-compartmental AUC; format: in vivo, zebrafish (Danio rerio); conditions: for accumulation in the gastrointestinal system / localization of the dye after IY microinjection: IY microinjection 2 mg/kg; for accumulation in the gastrointestinal system: after 96 hpf; for RD (IY), Relative Distribution: ratio of AUCRoB to AUCWB after microinjection into the yolk (2 mg/kg), 0.25–72 h; for localization of the dye after IY microinjection: first hours post injection
Excerpt: Intrayolk microinjection (IY): zebrafish embryos at the two-cell stage were positioned in a Petri dish at room temperature. […] Needles were filled with compounds dissolved in the vehicle (DMSO/saline (1:1)), placed under the microscope, and using forceps, the tip was cut off in a manner to allow for a consistent volume to be injected. Afterwards, the embryos were transferred to 6-well plates. Control embryos were exposed to vehicle only. […] Previous to fluorescence imaging, the embryos were dechorionated (up to 72 hpf) and immobilized by hypothermia, rinsed three times with Danieau's medium, and positioned latero-lateral (right lateral recumbency) on a single cavity glass slide and covered by a drop of agarose (0.1%). Then, using MetaMorph (Microscopy Automation and Image Analysis Software V.7.8.00, Molecular Devices, LLC., San Jose, CA, USA) and by manual delineation of the whole-body (WB) (up to 120 h) and yolk sac contours (up to 72 h) of the zebrafish embryos the fluorescence in the selected area was quantified as integrated fluorescence intensity (RFU). The RFU values of the non-yolk compartment (i.e., RoB: rest of body) was assessed by subtracting the yolk results from the corresponding integrated fluorescence intensities found in the WB. In order to determine the degree of tissue exposure following administration of the fluorescent compounds, we calculated the AUC as the pharmacokinetic parameter of the non-compartmental analysis. The area under a plot of the fluorescence intensity (RFUT) versus time is referred to as the area under the (zero moment) curve AUC. RFUT represents the relative amount of compound present in the ZFE by measuring the integrated fluorescence intensity of delineated contours in fluorescence images (Figure 2). The AUC was then determined by summing the incremental area of subsequent trapezoids.

[3] = Relative Exposure (RE10/2/72h): ratio of AUC immersion to AUC IY microinjection; format: in vivo, zebrafish (Danio rerio)
Method: We then assessed by non-compartmental analysis the area from 0.25 to 72 h post exposure under the concentration–time curve (AUC0.25–72h) (Table 1) that represents well the relative tissue exposure to fluorescent compound across time. These absolute fluorescence intensities however cannot be comscriptpared across compounds as they depend critically on the respective quantum yields of the compounds and the device settings. To be able to compare the PK behavior of the compounds following different administration routes, we calculated the fluorescence-independent pharmacokinetic parameter Relative Exposure (RE10/2/72h), i.e., the ratio of AUC0.25–72h immersion (10 µM) to AUC0.25–72h IY microinjection (2 mg/kg). Separate RE values were calculated based on the whole body (WB), rest-of-body (RoB) and yolk fluorescence measurements (Table 2).
as §1
We further calculated the Relative Exposure (RE10/2) by comparing the […] after IY microinjection (2 mg/kg), as defined in Equation (2): (2) RE10/2/h=AUCImm/AUCInj.

[4] = parameters: method as in PMID 34108572; conditions: experimentally determined before; cited from earlier work
[5] = rest of body (non-yolk), intrayolk microinjection 2 mg/kg, 0.25 to 72 h
[6] = whole body, intrayolk microinjection 2 mg/kg, 0.25 to 72 h
[7] = yolk, intrayolk microinjection 2 mg/kg, 0.25 to 72 h

Row | Molecule | intrabody accumulation on longer incubations [1] | AUC-RoB IMM (AUC0.25–72h) [1] [RFU × 10^7] | AUC-WB IMM (AUC0.25–72h) [1] [RFU × 10^7] | AUC-Yolk IMM (AUC0.25–72h) [1] [RFU × 10^7] | accumulation in the gastrointestinal system [2] | RD (IY), Relative Distribution [2] | AUC-RoB IY (AUC0.25–72h) [2, 5] [RFU × 10^7] | AUC-WB IY (AUC0.25–72h) [2, 6] [RFU × 10^7] | AUC-Yolk IY (AUC0.25–72h) [2, 7] [RFU × 10^7] | RE-RoB (Relative Exposure RE-RoB10/2/72h) ([3]; rest of body, AUC0.25–72h immersion (10 µM) / AUC0.25–72h IY microinjection (2 mg/kg)) | RE-WB (Relative Exposure RE-WB10/2/72h) ([3]; whole body, AUC0.25–72h immersion (10 µM) / AUC0.25–72h IY microinjection (2 mg/kg)) | RE-Yolk (Relative Exposure RE-Yolk10/2/72h) ([3]; yolk, AUC0.25–72h immersion (10 µM) / AUC0.25–72h IY microinjection (2 mg/kg)) | Log D [4] | intrabody accumulation after one hour of immersion followed by dechorionation ([1]; 1 h, dechorionated and rinsed) | RE-WB (Relative Exposure RE-WB10/2/72h) ([3]; zebrafish, in vivo) | localization of the dye after IY microinjection [2] | AUC-RoB IY (AUC0.25–72h) ([2]; zebrafish, in vivo, 2 mg/kg) [RFU × 10^7] | AUC-WB IY (AUC0.25–72h) ([2]; zebrafish, in vivo, 2 mg/kg) [RFU × 10^7] | AUC-Yolk IY (AUC0.25–72h) ([2]; zebrafish, in vivo, 2 mg/kg) [RFU × 10^7]
1 | C#CCNC(=O)c1ccc(-c2c3ccc(=[N+](C)C)cc-3oc3cc(N(C)C)ccc23)c(C(=O)[O-])c1 (single isomer, unassigned) [TAMRA] | further intrabody accumulation | 2.78 | 7.76 | 4.98 | accumulation | 0.28 | 11.2 | 40.4 | 29.1 | 0.25 | 0.19 | 0.17 | 0.46 | – | – | – | – | – | –
2 | C#CCNC(=O)CCCCCN1C(=CC=CC2=[N+](C)c3ccccc3C2(C)C)C(C)(C)c2ccccc21.[Cl-] [CY3A, Cyanine 3] | further intrabody accumulation | 6.41 | 20.9 | 14.6 | accumulation | 0.17 | 3.21 | 18.9 | 15.7 | – | – | – | 1.73 | fast intrabody accumulation | 1.11 | – | – | – | –
3 | C#CCNC(=O)c1ccc2c(c1)C(=O)OC21c2ccc(O)cc2Oc2cc(O)ccc21 [FAMA, Fam A, 5-Isomer] | – | 0.84 | 1.17 | 0.36 | accumulation | 0.32 | 6.93 | – | 14.9 | – | – | – | −0.14 | – | 0.05 | – | – | – | –
4 | C#CCNC(=O)CCCCCN1C(=CC=CC2=[N+](C)c3ccc(S(=O)(=O)[O-])cc3C2(C)C)C(C)(C)c2cc(S(=O)(=O)[O-])ccc21.[K+] [S-CY3A, S-Cyanine 3] | – | 2.67 | 4.56 | 1.89 | accumulation | 0.24 | 7.65 | 31.4 | 23.8 | – | – | – | −1.96 | – | 0.15 | stayed localized to the microinjection site | – | – | –
5 | C#CCNC(=O)CCCCC[N+]1=C(C=CC=CC=C2N(C)c3ccc4c(S(=O)(=O)[O-])cc(S(=O)(=O)[O-])cc4c3C2(C)C)C(C)(C)c2c1ccc1c(S(=O)(=O)[O-])cc(S(=O)(=O)[O-])cc21.[K+].[K+].[K+] [S-CY5.5A, S-Cyanine 5.5] | – | 0 | 0 | 0 | – | 0.19 | 1.02 | 5.45 | 4.42 | – | – | – | −1.68 | – | 0 | stayed localized to the microinjection site | – | – | –
6 | Rhodamine 6g 6-Isomer [Compound R6GA] | – | – | – | – | – | – | – | – | – | – | – | – | 1.07 | – | 0.10 | – | 1.48 | 5.76 | 4.29
7 | S-Cyanine 5A [S-CY5A] | – | 0 | 0 | 0 | – | 0.18 | 1.67 | 9.49 | 7.82 | – | – | – | −0.72 | – | 0 | stayed localized to the microinjection site | – | – | –
